ChEMBL document CHEMBL1138299, “Synthesis and antitumor activity of amine analogs of irofulven” (Bioorg Med Chem Lett, 2007)

Test: Antitumor activity in MV522 cells assessed as inhibition of DNA synthesis after 2 hrs
Assay type: functional, cell-based
Conditions: Homo sapiens, MV522, 2 h

Compound | IC50
CC1=C(C=O)C2=C(C)C3(CC3)[C@@](C)(O)C(=O)C2=C1 | 4900 nM
CC1=C(CO)C2=C(C)C3(CC3)[C@@](C)(O)C(=O)C2=C1 [IROFULVEN] | 110 nM
